According to patent US9265773B2, “Tetracyclic heterocycle compounds and methods of use thereof for the treatment of viral diseases” (priority 2011, dated 2016):

Assays:
HCV replicon genotype 1a = experiment: microbe, parasite or virus in culture; type: cell-based; conditions: genotype 1a replicon cells, incubated 96 hours, NS3/4A ELISA readout
HCV replicon genotype 1b = experiment: microbe, parasite or virus in culture; type: cell-based; conditions: genotype 1b replicon cells, incubated 96 hours, NS3/4A ELISA readout

Row | Structure (SMILES) | IC50 (HCV replicon genotype 1a; Hepatitis C virus, 96 h) [nM] | IC50 (HCV replicon genotype 1b; Hepatitis C virus, 96 h) [nM] | IC50 (HCV replicon genotype 1a) [nM] | IC50 (HCV replicon genotype 1b) [nM]
1 | CNC(=O)c1c(-c2ccc(F)cc2)oc2cc(N(C)S(C)(=O)=O)c(-c3ccc4oc(=O)n5c6ccccc6cc5c4c3)cc12 [Compound 53, 2-(4-fluorophenyl)-N-methyl-6-(N-methylmethylsulfonamido)-5-(6-oxo-6H-benzo[5,6][1,3]oxazino[3,4-a]indol-2-yl)benzofuran-3-carboxamide] | 8 | 7.9 | – | –
2 | CNC(=O)c1c(-c2ccc(F)cc2)oc2cc(N(C)S(C)(=O)=O)c(-c3cc4c(cn3)OCn3c-4cc4cc(F)ccc43)cc12 [Compound 35] | 2.5 | 4.7 | – | –
3 | CNC(=O)c1c(-c2ccc(F)cc2)oc2cc(N(CCF)S(C)(=O)=O)c(-c3ncc4c(n3)-c3cc5ccccc5n3CO4)cc12 [Compound 196] | 1.8 | 3.6 | – | –
4 | CNC(=O)c1c(-c2ccc(F)cc2)oc2cc(N(C)S(C)(=O)=O)c(-c3ccc4c(n3)-c3cc5c(F)cccc5n3C(CNCCOC)O4)cc12 (stereo not drawn) [Compound 120] | 4.3 | 2.1 | – | –
5 | CNC(=O)c1c(-c2ccc(F)cc2)oc2cc(C(=O)OC)c(-c3ccc4c(n3)-c3cc5c(F)cccc5n3CO4)cc12 [Compound 182] | 24 | 23 | – | –
6 | CNC(=O)c1c(-c2ccc(F)cc2)oc2cc(N(C)S(C)(=O)=O)c(-c3ccc4c(c3)-c3nc5cccnc5n3CO4)cc12 [Compound 135] | 2.4 | 2.4 | – | –
7 | CNC(=O)c1c(-c2ccc(F)cc2)oc2cc(N(C)S(C)(=O)=O)c(-c3ccc4c(c3)-c3cc5ccccc5n3CC(NCCN(C)C)CO4)cc12 (stereo not drawn) [Compound 80, 5-(7-((2-(dimethylamino)ethyl)amino)-7,8-dihydro-6H-benzo[2,3][1,5]oxazocino[5,4-a]indol-2-yl)-2-(4-fluorophenyl)-N-methyl-6-(N-methylmethylsulfonamido)benzofuran-3-carboxamide] | 18 | 15 | – | –
8 | CCNC(=O)C1Oc2ccc(-c3cc4c(C(=O)NC)c(-c5ccc(F)cc5)oc4cc3N(C)S(C)(=O)=O)nc2-c2cc3c(F)cccc3n21 (stereo not drawn) [Compound 107] | – | – | 1.5 | 0.7
9 | CNC(=O)c1c(-c2ccc(F)cc2)oc2cc(N(C)S(C)(=O)=O)c(-c3ccc4c(c3)-c3cc5ccccc5n3CC(NC3CCN(C)CC3)CO4)cc12 (stereo not drawn) [Compound 82] | 15 | 11 | – | –
10 | CNC(=O)c1c(-c2ccc(F)cc2)oc2cc(N(CCN3CCOCC3)S(C)(=O)=O)c(-c3ccc4c(n3)-c3cc5c(F)cccc5n3CO4)cc12 [Compound 211, 5-(11-fluoro-6H-pyrido[2′,3′:5,6][1,3]oxazino[3,4-a]indol-2-yl)-2-(4-fluorophenyl)-N-methyl-6-(N-(2-morpholinoethyl)methylsulfonamido)benzofuran-3-carboxamide] | 6.5 | 12 | – | –
11 | CNC(=O)c1c(-c2ccc(F)cc2)oc2cc(N(C)S(C)(=O)=O)c(-c3ccc4c(c3)-c3cc5ccccc5n3C(C3CC3)O4)cc12 (stereo not drawn) [Compound 132] | 4.8 | 7.9 | – | –
12 | CNC(=O)c1c(-c2ccc(F)cc2)oc2cc(N(C)S(C)(=O)=O)c(-c3nc4c(cc3OC)OCn3c-4cc4ccccc43)cc12 [Compound 29] | 4.8 | 8 | – | –
13 | CNC(=O)c1c(-c2ccc(F)cc2)oc2cc(N(C)S(C)(=O)=O)c(-c3ccc4c(n3)-c3nn5ccccc5c3CO4)cc12 [Compound 146, 2-(4-fluorophenyl)-N-methyl-5-(1-aza-6H-chromeno[4′,3′:3,4]pyrazolo[1,5-a]pyridin-2-yl)-6-(N-methylmethylsulfonamido)benzofuran-3-carboxamide] | 225 | 37 | – | –
14 | CNC(=O)c1c(-c2ccc(F)cc2)oc2cc(N(CCO)S(C)(=O)=O)c(-c3ccc4c(n3)-c3cc5c(F)cccc5n3CO4)cc12 [Compound 201] | 2.6 | 5.5 | – | –
15 | CNC(=O)c1c(-c2ccc(F)cc2)oc2cc(N(C)S(C)(=O)=O)c(-c3ccc4c(n3)-c3cc5ccc(F)cc5n3CO4)cc12 [Compound 17] | 4 | 3.9 | – | –
16 | CNC(=O)c1c(-c2ccc(F)cc2)oc2cc(N(C)S(C)(=O)=O)c(-c3ccc4oc(=O)n5c6cccc(F)c6cc5c4n3)cc12 [Compound 54, 5-(11-fluoro-6-oxo-6H-pyrido[2′,3′:5,6][1,3]oxazino[3,4-a]indol-2-yl)-2-(4-fluorophenyl)-N-methyl-6-(N-methylmethylsulfonamido)benzofuran-3-carboxamide] | 69 | 39 | – | –
17 | CNC(=O)c1c(-c2ccc(F)cc2)oc2cc(N(C)S(C)(=O)=O)c(-c3cnc4c(n3)-c3cc5c(F)cccc5n3CO4)cc12 [Compound 25] | 1 | 1.8 | – | –
18 | CCNC(=O)C1Oc2ccc(-c3cc4c(C(=O)NC)c(-c5ccc(F)cc5)oc4cc3N(C)S(C)(=O)=O)nc2-c2cc3c(F)cccc3n21 (stereo not drawn) [Compound 108] | – | – | 14 | 2.4
19 | CNC(=O)c1c(-c2ccc(F)cc2)oc2cc(N3CCN(C)C3=O)c(-c3ccc4c(n3)-c3cc5c(F)cccc5n3CO4)cc12 [Compound 178, 5-(11-fluoro-6H-pyrido[2′,3′:5,6][1,3]oxazino[3,4-a]indol-2-yl)-2-(4-fluorophenyl)-N-methyl-6-(3-methyl-2-oxoimidazolidin-1-yl)benzofuran-3-carboxamide] | 133 | 28 | – | –
20 | CNC(=O)c1c(-c2ccc(F)cc2)oc2cc(N(C)S(C)(=O)=O)c(-c3ccc4c(c3)-c3cc5c(F)cccc5n3CO4)cc12 [Compound 43, 5-(11-fluoro-6H-benzo[5,6][1,3]oxazino[3,4-a]indol-2-yl)-2-(4-fluorophenyl)-N-methyl-6-(N-methylmethylsulfonamido)benzofuran-3-carboxamide] | 2.4 | 3.9 | – | –

Row | Structure (SMILES) | IC50 (HCV replicon genotype 1a; Hepatitis C virus, 96 h) [nM] | IC50 (HCV replicon genotype 1b; Hepatitis C virus, 96 h) [nM] | IC50 (HCV replicon genotype 1a) [nM] | IC50 (HCV replicon genotype 1b) [nM]
21 | CNC(=O)c1c(-c2ccc(F)cc2)oc2cc(N3CCCC3=O)c(-c3ccc4c(c3)-c3cc5c(F)cccc5n3CO4)cc12 [Compound 171, 5-(11-fluoro-6H-benzo[5,6][1,3]oxazino[3,4-a]indol-2-yl)-2-(4-fluorophenyl)-N-methyl-6-(2-oxopyrrolidin-1-yl)benzofuran-3-carboxamide] | 12 | 4.7 | – | –
22 | CNC(=O)c1c(-c2ccc(F)cc2)oc2cc(N(C)S(C)(=O)=O)c(-c3nc4c(cc3F)OCn3c-4cc4c(F)cccc43)cc12 [Compound 27] | 2.9 | 6.1 | – | –
23 | CNC(=O)c1c(-c2ccc(F)cc2)oc2cc(N(C)S(C)(=O)=O)c(-c3ccc4c(n3)-c3cc5ccc(C#N)cc5n3CO4)cc12 [Compound 22] | 3.5 | 1.9 | – | –
24 | CNC(=O)c1c(-c2ccc(F)cc2)oc2cc(N(C)S(C)(=O)=O)c(-c3cc4c(c[n+]3[O-])OCn3c-4cc4c(F)cccc43)cc12 [Compound 74] | 15 | 25 | – | –
25 | CNC(=O)c1c(-c2ccc(F)cc2)oc2cc(N(C)S(C)(=O)=O)c(-c3ccc4c(n3)-c3cc5c(C#N)cccc5n3CO4)cc12 [Compound 12] | 1.6 | 1.7 | – | –
26 | CNC(=O)c1c(-c2ccc(F)cc2)oc2cc(N(CCF)S(C)(=O)=O)c(-c3ccc4c(n3)-c3cc5c(F)cccc5n3CO4)cc12 [Compound 190] | 2.8 | 3.8 | – | –
27 | CNC(=O)c1c(-c2ccc(F)cc2)oc2cc(N(C)S(C)(=O)=O)c(-c3ccc4c(n3)-c3cc5cc(F)cc(F)c5n3CO4)cc12 [Compound 19] | 19 | 21 | – | –
28 | CN(c1cc2oc(-c3ccc(F)cc3)c(C(=O)NC3COC3)c2cc1-c1ccc2c(n1)-c1cc3c(F)cccc3n1CO2)S(C)(=O)=O [Compound 152] | 14 | 15 | – | –
29 | CNC(=O)c1c(-c2ccc(F)cc2)oc2cc(N(C)S(C)(=O)=O)c(-c3ccc4c(n3)-c3cc5c(F)cccc5n3C(CNC(C)C(=O)O)O4)cc12 (stereo not drawn) [Compound 117] | 74 | 7.5 | – | –
30 | CNC(=O)c1c(-c2ccc(F)cc2)oc2cc(N(CCCF)S(C)(=O)=O)c(-c3ncc4c(n3)-c3cc5c(F)cccc5n3CO4)cc12 [Compound 195] | 2.1 | 4.1 | – | –
31 | CNC(=O)c1c(-c2ccc(F)cc2)oc2cc(N(C)S(C)(=O)=O)c(-c3ccc4c(n3)-c3c(Cl)c5c(Cl)cccc5n3CO4)cc12 [Compound 57] | 11 | 13 | – | –
32 | CNC(=O)c1c(-c2ccc(F)cc2)oc2cc(N(C)S(C)(=O)=O)c(-c3ccc4c(n3)-c3cc5c(F)cccc5n3C(C(OC)OC)O4)cc12 (stereo not drawn) [Compound 93] | 4.4 | 6 | – | –
33 | CC(C)NC(=O)c1c(-c2ccc(F)cc2)oc2cc(N(C)S(C)(=O)=O)c(-c3ccc4c(n3)-c3cc5c(F)cccc5n3CO4)cc12 [Compound 158] | 42 | 24 | – | –
34 | CNC(=O)c1c(-c2ccc(F)cc2)oc2cc(N(C)S(C)(=O)=O)c(-c3ccc4c(n3)-c3cc5c(F)cccc5n3C(CNC(=O)[C@@H]3CCCN3C(=O)OC)O4)cc12 (stereo partly drawn) [Compound 124, (2S)-methyl 2-(((11-fluoro-2-(2-(4-fluorophenyl)-3-(methylcarbamoyl)-6-(N-methylmethylsulfonamido)benzofuran-5-yl)-6H-pyrido[2′,3′:5,6][1,3]oxazino[3,4-a]indol-6-yl)methyl)carbamoyl)pyrrolidine-1-carboxylate] | – | – | 19 | 4.5
35 | CNC(=O)c1c(-c2ccc(F)cc2)oc2cc(N(C)S(C)(=O)=O)c(-c3cnc4c(n3)-c3cc5c(C#N)cccc5n3CO4)cc12 [Compound 33] | 0.9 | 1.2 | – | –
36 | CNC(=O)c1c(-c2ccc(F)cc2)oc2cc(N(C)S(C)(=O)=O)c(-c3ncc4c(n3)-c3cc5ccccc5n3CCCO4)cc12 [Compound 39] | 2.4 | 1.8 | – | –
37 | CNC(=O)c1c(-c2ccc(F)cc2)oc2cc(N(C3COC3)S(C)(=O)=O)c(-c3ccc4c(n3)-c3cc5c(F)cccc5n3CO4)cc12 [Compound 199] | 4.7 | 5.9 | – | –
38 | CNC(=O)c1c(-c2ccc(F)cc2)oc2cc(N(C)S(C)(=O)=O)c(-c3ccc4c(n3)-c3cc5cc(C#N)cc(F)c5n3CO4)cc12 [Compound 31] | 7.2 | 6.5 | – | –
39 | CNC(=O)c1c(-c2ccc(F)cc2)oc2cc(N(C)S(C)(=O)=O)c(-c3ccc4c(n3)-c3cc5cc(C#N)ccc5n3CO4)cc12 [Compound 13] | 2 | 2.2 | – | –
